Assay results taken from patent publication US10064865B2, “Composition comprising phosphodiesterase type 5 inhibitor for inhibiting apoptosis of nerve cells” (ARIBIO INC., priority 2012, dated 2018).
Marks after values point to notes of the source that are not given here.

Columns and labels:
[1] = system: neuron apoptosis-operated rats; experiment: Example 2 forelimb placing test; assay type: in vivo, Sprague-Dawley (SD) rats
Protocol: Sensorimotor function was evaluated by use of limb placing (de Ryck M et al., Stroke. 20:1383-90(1989)) and body swing (Borlongan and Sanberg, J Neurosci. 15:5372-8(1995)) tests. These tests were performed at 1 and 28 days after neuron apoptosis. The investigator performing the surgery and behavioral assessments was blinded to treatment assignment.
Limb placing test: Forelimb and hindlimb placement were assessed independently. For the forelimb placing test, the rats were held by their torso with their forepaws hanging free and moved slowly toward the edge of a tabletop, stopping short of touching the vibrissae (for vision-induced placing), touching the vibrissae (for vibrissae-induced placing), making light contact with the front of the forepaw to the edge of the tabletop (for tactile-induced placing), and pressing the forepaws to the edge of the table with increased pressure (for proprioceptive-induced placing). Hindlimb placing was conducted in the same manner as above but with tactile and proprioceptive stimulation applied to the front/top of each hindlimb. Each limb for placing in response to visual, vibrissae, tactile, and proprioceptive stimulation are scored in the following manner: normal performance=0 points; performance with unilateral limb=1 point; performance with a delay (2 seconds) and/or incomplete=2 point; no performance=3 points. A total of 12 points in forelimb placing test and 6 points in hindlimb placing test means maximal neurological deficit, and 0 points means normal performance.
All data were expressed as mean±standard deviation (S.D.) of ten rats. Multiple comparison tests for different dose groups were conducted. Variance homogeneity was examined using the Levene test (Levene A, Clin Otalary, 1981; 6:145-51). […] In addition, the percent changes as compared with neuron apoptosis control and mirodenafil treated rats were calculated to help the understanding of the efficacy of test substances as follow Equation 6 and 7. […]

[2] = Example 2 body weight measurements; assay type: in vivo, Sprague-Dawley (SD) rats; settings: for Body weights at 29 days after surgery [B] / Weight gains [B − A]: 1 mg/kg s.c. once a day for 14 days; for Body weights at Before surgery / Body weights at surgery [A]: before treatment
Protocol: Changes of body weight were measured at 1 day before neuron apoptosis, the day of neuron apoptosis, 1, 3, 7, 14, 21, 28 and 29 days after neuron apoptosis. […] Body weight gains (g) during 29 days after neuron apoptosis=(Body weight at the 29 days after neuron apoptosis−body weight at the day of neuron apoptosis) [EQUATION 5]
All data were expressed as mean±standard deviation (S.D.) of ten rats. Multiple comparison tests for different dose groups were conducted. Variance homogeneity was examined using the Levene test (Levene A, Clin Otalary, 1981; 6:145-51). […] Statistical analyses were conducted using SPSS for Windows (Release 14K, SPSS Inc., USA; Ludbrook, Clin Exp Pharmacol Physiol, 1997; 24:294-6). In addition, the percent changes as compared with neuron apoptosis control and mirodenafil treated rats were calculated to help the understanding of the efficacy of test substances as follow Equation 6 and 7. Percentage Changes as Compared with Sham Control (%)=[((Data of neuron apoptosis control−Data of sham control rat)/Data of sham control rats)×100] [EQUATION 6] Percentage Changes as Compared with neuron apoptosis Control (%)=[((Data of test material treated rats−Data of neuron apoptosis control rats)/Data of neuron apoptosis control rats)×100] [EQUATION 7]

[3] = 1 mg/kg from 24 hrs after surgery
[4] = 1 mg/kg from 72 hrs after surgery
[5] = 1 mg/kg from 168 hrs after surgery

CCCOc1ccc(S(=O)(=O)N2CCN(CCO)CC2)cc1-c1nc2c(CCC)cn(CC)c2c(=O)[nH]1 [Mirodenafil, mirodenafil]
forelimb placing test scores at 28 days, change as compared with neuron apoptosis control [1, 3]: −57.41% | forelimb placing test scores at 28 days, change as compared with neuron apoptosis control [1, 4]: −29.63% | forelimb placing test scores at 28 days, change as compared with neuron apoptosis control [1, 5]: −11.11% | body weight gains during 29 days, change as compared with neuron apoptosis control [2, 3]: 43.24% | body weight gains during 29 days, change as compared with neuron apoptosis control [2, 4]: 33.78% | body weight gains during 29 days, change as compared with neuron apoptosis control [2, 5]: 11.04% | Body weights at 29 days after surgery [B] ([2]; start 24 hrs after operation): 357.13 ± 15.38^ab g | Weight gains [B − A] ([2]; start 24 hrs after operation): 79.50 ± 14.09^ab g | Body weights at 29 days after surgery [B] ([2]; start 72 hrs after operation): 349.38 ± 10.28^ac g | Weight gains [B − A] ([2]; start 72 hrs after operation): 74.25 ± 14.95^ab g | Body weights at 29 days after surgery [B] ([2]; start 168 hrs after operation): 338.63 ± 15.26^a g | Weight gains [B − A] ([2]; start 168 hrs after operation): 61.63 ± 6.78^a g | Body weights at Before surgery ([2]; 1 mg/kg start 24 hrs group): 307.75 ± 15.84 g | Body weights at surgery [A] ([2]; 1 mg/kg start 24 hrs group): 277.63 ± 15.07 g | Body weights at Before surgery ([2]; 1 mg/kg start 72 hrs group): 307.25 ± 11.36 g | Body weights at surgery [A] ([2]; 1 mg/kg start 72 hrs group): 275.13 ± 12.21 g | Body weights at Before surgery ([2]; 1 mg/kg start 168 hrs group): 307.88 ± 10.53 g | Body weights at surgery [A] ([2]; 1 mg/kg start 168 hrs group): 277.00 ± 10.41 g
